According to ChEMBL document CHEMBL1128598, “Potential anxiolytic agents. Pyrido[1,2-a]benzimidazoles: a new structural class of ligands for the benzodiazepine binding site on GABA-A receptors” (J Med Chem, 1995):

Assays:
[1] = tested on: Rattus norvegicus; assay: Minimum effective dose as dose required to release behavior in suppressed rats by conflict test after intraperitoneal administration.; type: functional; conditions: ip, read-out: MED
[2] = biological target: GABA-A receptor; anion channel; assay: Binding affinity against benzodiazepine site of gamma-aminobutyric-acid A receptor of rat cerebral cortex by using [3H]flunitrazepam in the absence of GABA.; type: tissue-based
[3] = biological target: GABA-A receptor; anion channel; assay: Binding affinity against benzodiazepine site of gamma-aminobutyric-acid A receptor of rat cerebral cortex by using [3H]flunitrazepam in the presence of GABA 1 mM.; type: tissue-based
[4] = biological target: GABA-A receptor; anion channel (Rattus norvegicus) (UniProt O09028+P15431+P18506+P18508+P19969+P20236+P23574+P23576+P28471+P28473+P30191+P62813+P63079+P63138+Q91ZM7+Q9ES14); assay: GABA shift as the ratio of IC50 (no GABA) to that of IC50 (GABA); GABA shift; type: protein-complex assay
[5] = tested on: Mus musculus; assay: The ability to block the tonic-clonic component of seizures induced by metrazole in mice after intraperitoneal administration.; type: functional; conditions: ip

SMILES	minimal effective dose [1] [mg/kg]	IC50 [2] [nM]	IC50 [3] [nM]	GS [4]	ED50 [5] [mg/kg]
COc1ccc(NC(=O)C2=C(O)CCn3c2nc2ccccc23)cc1	10	41	16	2.6	2
O=C1CCn2c(nc3ccccc32)/C1=C(\O)Sc1ccccc1	> 10	29	26	1.1	> 30
O=C(Nc1ccccc1F)c1c(O)ccn2c1nc1ccccc12	0.1	0.23	0.11	2.1	0.088
O=C(Nc1ccccc1)c1c(O)ccn2c1nc1ccccc12	10	24	14	1.7	0.39
O=C(NC1CCC1)C1=C(O)CCn2c1nc1ccccc12	10	30	25	1.2	> 30
O=C(NC1CC1)C1=C(O)CCn2c1nc1ccccc12	> 10	16	18	0.87	> 10
O=C1CCN2C(=C1C(=O)Nc1ccccc1)N(Cc1ccccc1)c1ccccc12	10	12	2.7	4.6	1.4
O=C(Nc1ccc(Cl)cc1)C1=C(O)CCn2c1nc1ccccc12	1	620	265	2.3	8.9
COc1cccc(NC(=O)C2=C(O)CCn3c2nc2ccccc23)c1	5	26	16	1.6	> 10
CCN1C2=C(C(=O)Nc3ccccc3)C(=O)CCN2c2ccccc21	0.3	2.1	1.4	1.6	0.083
O=C1CCn2c(nc3ccccc32)/C1=C(\O)Oc1ccccc1	> 10	200	150	1.4	9.9
CCO/C(O)=C1\C(=O)CCn2c1nc1ccccc12	–	675	840	0.68	> 10
COc1ccccc1NC(=O)C1=C(O)CCn2c1nc1ccccc12	> 10	990	940	1.1	> 10
O=C(NC1CCCCC1)C1=C(O)CCn2c1nc1ccccc12	10	140	72	2	3
O=C(Nc1c(Cl)cccc1Cl)C1=C(O)CCn2c1nc1ccccc12	> 10	320	170	1.9	> 30
O=C1CCN2C(=C1C(=O)Nc1ccccc1)Nc1ccccc12	10	9.1	5.9	1.5	5.2
O=C(Nc1cccc(Cl)c1)C1=C(O)CCn2c1nc1ccccc12	> 10	120	95	1.3	> 30
CN1C2=C(C(=O)Nc3ccccc3F)C(=O)CCN2c2ccccc21	0.03	0.42	0.26	1.6	0.019
OC1=C(/C(S)=N/c2ccccc2)c2nc3ccccc3n2CC1	> 10	360	320	1.1	> 10
O=C(Nc1c(F)cccc1F)C1=C(O)CCn2c1nc1ccccc12	0.1	2.8	1.7	1.6	0.85
O=C(Nc1ccccc1Cl)C1=C(O)CCn2c1nc1ccccc12	10	12	5.3	2.3	0.95
O=C(Nc1ccccc1F)C1=C(O)CCn2c1nc1ccccc12	1	1.7	1.4	1.2	0.16
CN(C(=O)C1=C(O)CCn2c1nc1ccccc12)c1ccccc1	> 10	> 10000	> 10000	–	> 10
CN1C2=C(C(=O)Nc3ccccc3)C(=O)CCN2c2ccccc21	1	5.8	2.1	2.8	0.13
NC(=O)C1=C(O)CCn2c1nc1ccccc12	10	2400	6000	0.4	> 30
CN1C(=O)CN=C(c2ccccc2)c2cc(Cl)ccc21 [DIAZEPAM]	5	–	–	2.2	0.11
